Among the test systems are 786-0 renal; SNB-75 CNS; MALME-3M melanoma; A498 renal; RXF 393 renal; MCF7 breast; KM12 colon; UACC-62 melanoma; HCC-2998 colon; SK-MEL-28 melanoma.
Test in all cases: NCI-60 cell line screen, 48 h

This note sets out measurements from PubChem BioAssay (NCI).

The structures appear in SMILES notation.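 Where inhibition never reached the appropriate level, the endpoint shown equals the highest concentration tested. Otherwise, values were interpolated linearly from a five-concentration, 48-hour dose response in 96-well plates. At the GI50, growth is halved. TGI: concentration producing complete growth inhibition.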 Where a SMILES comes first, the peptide text is derived from it. Bridges are numbered along the chain shown (N, C = ends). [ ]: non-standard residue; d: D form. aThr = C[C@H](O)[C@H](N)C(=O)O

As to `S=C1SCN(Cc2ccccc2)CN1Cc1ccco1`, the GI50 with 786-0 renal was 3.5 µM; in the assay on SNB-75 CNS, 4.09 µM; with MALME-3M melanoma, 8.44 µM; with A498 renal, 21.6 µM; with RXF 393 renal it was 2 µM; in the assay on MCF7 breast it was 1.78 µM. For the same compound, the GI50 was 1.52 µM in the assay on KM12 colon, 4.75 µM in the assay with UACC-62 melanoma, 16.6 µM in the assay on HCC-2998 colon and 5.75 µM in the assay with SK-MEL-28 melanoma. Moreover, the TGI in the assay with 786-0 renal is 14.4 µM; in the assay on SNB-75 CNS it was 21.9 µM; with MALME-3M melanoma, 23.5 µM; in the assay on A498 renal it was 69.7 µM; with RXF 393 renal, 5.53 µM; in the assay with MCF7 breast, 16.1 µM. For the same compound, the TGI with KM12 colon was determined as 10.6 µM; in the assay with UACC-62 melanoma it was 18.7 µM; in the assay on HCC-2998 colon, 34.1 µM; in the assay with SK-MEL-28 melanoma it was 20.1 µM.

On to `CN(C)c1ccc(-c2cc(-c3ccc(Nc4nc(Nc5ccc(Cl)cc5)nc(Nc5ccc(Cl)cc5)n4)cc3)nc(N)c2C#N)cc1`, for which the GI50 in the assay with 786-0 renal was 16.7 µM; with SNB-75 CNS, 3.05 µM; with MALME-3M melanoma it was 69.4 µM; in the assay on A498 renal it was 6.41 µM; in the assay on RXF 393 renal it was 1.96 µM; in the assay with MCF7 breast, 2.38 µM. Further, the GI50 was 10.3 µM in the assay with KM12 colon, 20.4 µM with UACC-62 melanoma, 99.4 µM with HCC-2998 colon and 2.05 µM in the assay on SK-MEL-28 melanoma. Besides, the TGI in the assay with 786-0 renal is > 100 µM; in the assay on SNB-75 CNS it was > 100 µM; in the assay on MALME-3M melanoma, > 100 µM; in the assay on A498 renal, > 100 µM; with RXF 393 renal, 6.77 µM; in the assay with MCF7 breast, 47.7 µM. Besides, the TGI in the assay with KM12 colon was > 100 µM; in the assay with UACC-62 melanoma it was 92.7 µM; in the assay on HCC-2998 colon, > 100 µM; in the assay with SK-MEL-28 melanoma, 6.35 µM.

For the compound `CCc1ccc(Nc2cc(C)c3ccc(O)cc3n2)cc1`, the GI50 is 6.07 µM in the assay on 786-0 renal; 11.3 µM with SNB-75 CNS; 6.19 µM with MALME-3M melanoma; 16.6 µM in the assay with A498 renal; 4.08 µM in the assay on RXF 393 renal; 4.75 µM in the assay with MCF7 breast. Besides, the GI50 is 6.01 µM with KM12 colon, 8.57 µM in the assay on UACC-62 melanoma, 5.18 µM in the assay with HCC-2998 colon and 11.7 µM in the assay with SK-MEL-28 melanoma. In addition, the TGI in the assay with 786-0 renal is 19.9 µM; in the assay on SNB-75 CNS, 24.8 µM; with MALME-3M melanoma it was 19 µM; in the assay on A498 renal, 30.6 µM; with RXF 393 renal, 17.1 µM; in the assay with MCF7 breast, 22.4 µM. Further, the TGI in the assay on KM12 colon was 21.2 µM; in the assay with UACC-62 melanoma, 22.1 µM; in the assay on HCC-2998 colon it was 17.4 µM; with SK-MEL-28 melanoma it was 24.7 µM.

Take `Cn1c(=O)c2nc3sc4c(n3c2n(C)c1=O)C(=O)c1ccccc1C4=O`: the TGI was > 78.2 µM in the assay with 786-0 renal; 72.1 µM in the assay with SNB-75 CNS; > 100 µM with MALME-3M melanoma; > 100 µM in the assay with A498 renal; > 55.3 µM in the assay on RXF 393 renal; > 62 µM with MCF7 breast. Also, the TGI in the assay on KM12 colon, in the assay on UACC-62 melanoma, in the assay on HCC-2998 colon and in the assay with SK-MEL-28 melanoma was > 100 µM each time.

With `COc1ccc(/C=C2\CCC/C(=C\c3ccc(OC)c(OC)c3)C2=O)cc1OC`, the GI50 in the assay on 786-0 renal is 5.59 µM; with SNB-75 CNS, 1.29 µM; in the assay with MALME-3M melanoma it was 8.51 µM; in the assay on A498 renal, 3.88 µM; in the assay with RXF 393 renal it was 0.613 µM; with MCF7 breast, 1.19 µM. In addition, the GI50 with KM12 colon is 1.02 µM; in the assay on UACC-62 melanoma, 7.63 µM; in the assay with HCC-2998 colon, > 32.5 µM; in the assay with SK-MEL-28 melanoma, 16.7 µM. Moreover, the TGI was > 32.5 µM in the assay with 786-0 renal; 12.8 µM in the assay with SNB-75 CNS; > 32.5 µM in the assay on MALME-3M melanoma; > 32.5 µM in the assay on A498 renal; 3.18 µM in the assay with RXF 393 renal; > 32.5 µM with MCF7 breast. The TGI in the assay with KM12 colon, in the assay with UACC-62 melanoma, with HCC-2998 colon and with SK-MEL-28 melanoma was > 32.5 µM in each case.

For the compound `C#Cc1ccc(-n2c(/C=C/c3ccc(O)cc3)nc3ncccc3c2=O)cc1`, the GI50 with 786-0 renal was 4.88 µM; in the assay on SNB-75 CNS, 0.948 µM; with MALME-3M melanoma, 5.13 µM; in the assay with A498 renal, 2.48 µM; in the assay with RXF 393 renal, 1.48 µM; with MCF7 breast it was 3.04 µM. Besides, the GI50 in the assay with KM12 colon is 3.81 µM; with UACC-62 melanoma, 4.01 µM; in the assay with HCC-2998 colon it was 25.7 µM; in the assay with SK-MEL-28 melanoma, 5.97 µM. In addition, the TGI was 50.4 µM in the assay with 786-0 renal; 32.5 µM with SNB-75 CNS; > 100 µM in the assay on MALME-3M melanoma; 6.88 µM in the assay with A498 renal; 4.41 µM in the assay with RXF 393 renal; > 100 µM with MCF7 breast. Further, the TGI with KM12 colon is 60.3 µM; in the assay on UACC-62 melanoma, > 100 µM; in the assay with HCC-2998 colon, > 100 µM; with SK-MEL-28 melanoma it was > 100 µM.

For `CC(C)C[C@@H]1NC(=O)[C@@H]2CCCN2C(=O)[C@@H]2CCCN2C(=O)[C@H](CC(C)C)NC(=O)[C@H](CO)NC(=O)[C@H](CCCCN)NC(=O)[C@H]([C@H](C)O)NC(=O)[C@@H]2CSSC[C@@H](NC1=O)C(=O)N[C@@H](Cc1ccccc1)C(=O)N1CCC[C@H]1C(=O)N[C@@H](CC(=O)O)C(=O)NCC(=O)N[C@@H](CCCN=C(N)N)C(=O)N2` (cyclo(C[aThr]KSLPPL[dC]FPDGR); disulfide 1-9), the GI50 was > 50 µM in the assay on 786-0 renal; > 50 µM in the assay on MALME-3M melanoma; 13.2 µM in the assay with A498 renal; > 50 µM in the assay with RXF 393 renal; > 50 µM in the assay on MCF7 breast; > 50 µM in the assay on KM12 colon. The GI50 in the assay with UACC-62 melanoma, in the assay with HCC-2998 colon and in the assay on SK-MEL-28 melanoma was > 50 µM throughout. Also, the TGI was > 50 µM with 786-0 renal; > 50 µM in the assay with MALME-3M melanoma; 33.5 µM in the assay on A498 renal; > 50 µM in the assay on RXF 393 renal; > 50 µM in the assay with MCF7 breast; > 50 µM with KM12 colon. The TGI in the assay on UACC-62 melanoma, in the assay on HCC-2998 colon and with SK-MEL-28 melanoma was > 50 µM each time.

On to `CCCCS(=O)c1sc2nc(-c3cccs3)cc(-c3ccccc3)c2c1N` (stereo unspecified), for which the GI50 with 786-0 renal was 8.26 µM; with SNB-75 CNS, 10.2 µM; in the assay on MALME-3M melanoma, 26.1 µM; with A498 renal, 8.02 µM; in the assay on RXF 393 renal it was 10.6 µM; in the assay with MCF7 breast it was 10.4 µM. Also, the GI50 is 17.8 µM with KM12 colon, 32 µM with HCC-2998 colon and 29.2 µM with SK-MEL-28 melanoma. Moreover, the TGI with 786-0 renal is > 100 µM; in the assay on SNB-75 CNS, 98.7 µM; in the assay with MALME-3M melanoma, 75.4 µM; with A498 renal, 76.9 µM; in the assay with RXF 393 renal it was 58 µM; in the assay on MCF7 breast, > 100 µM. The TGI with KM12 colon, with HCC-2998 colon and in the assay on SK-MEL-28 melanoma was > 100 µM each time.
